Source: US11806342B2, “Diiodohydroxyquinoline for the treatment of clostridium difficile infection” (Purdue Research Foundation, priority 2019, dated 2023)
Values after ≈ are worked out from the molar mass of the structure shown. Like-named read-outs stand apart in the source and are kept apart here.

Assays:
[1] = tested on: C. difficile ATCC BAA-1870; test: Initial screening of antiparasitic drugs, broth microdilution MIC; type: cell-based, Clostridium difficile; conditions: Clostridioides difficile
[2] = tested on: 2 clinical C. difficile strains; test: Initial screening of antiparasitic drugs, both strains; type: cell-based, Clostridium difficile; conditions: Clostridioides difficile, both tested C. difficile strains, read-out: MIC (growth inhibitory concentration)
Protocol: C. difficile strains were grown anaerobically on brain heart infusion supplemented (BHIS) agar plates at 37° C. for 48 hours. Afterwards, a bacterial solution equivalent to 0.5 McFarland standard was prepared and diluted in (BHIS) broth to achieve a bacterial concentration of about 5×10^5 CFU/mL. Drugs were added and serially diluted along the plates. Plates were then, incubated anaerobically at 37° C. for 48 hours. MICs reported in Table (1) are the minimum concentrations of the drugs that could completely suppress the visual growth of bacteria.

C. difficile ATCC 1801 = test: Checkerboard assay, DIHQ with metronidazole or vancomycin; type: cell-based, Clostridium difficile; conditions: for MIC: Clostridioides difficile
Protocol: (§1) Interactions between diiodohydroxyquinoline and the anticlostridial drugs (metronidazole and vancomycin) against Clostridium difficile clinical isolates. […] The fractional inhibitory concentration index (ΣFIC) was calculated for each interaction. Interactions where the ΣFIC index was ≤0.5 were categorized as synergistic (SYN).

C. difficile I6 = test: as above; type: cell-based, Clostridium difficile; conditions: for MIC: Clostridioides difficile
Protocol: as §1

C. difficile P19 = test: as above; type: cell-based, Clostridium difficile; conditions: for MIC: Clostridioides difficile
Protocol: as §1

C. difficile P30 = test: as above; type: cell-based, Clostridium difficile; conditions: for MIC: Clostridioides difficile
Protocol: as §1

[3] = tested on: C. difficile clinical isolates; test: Checkerboard assay, summary over 9 tested strains; type: cell-based, Clostridium difficile
Protocol: as §1

Bifidobacterium longum = test: MIC against normal gut microflora; type: cell-based; conditions: both strains
Protocol: (§2) In vitro antimicrobial evaluation of diiodohydroxyquinoline against normal microflora. The broth microdilution assay was utilized to determine the MICs of DIHQ and control antibiotics against commensal organisms that compose he human gut microflora, as described elsewhere. A bacterial solution equivalent to 0.5 McFarland standard was prepared and diluted in BHIS broth (for Bifidobacterium and Bacteroides) or in MRS broth (for Lactobacillus) to achieve a bacterial concentration of about 5×10^5 CFU/mL. Then, drugs were added and serially diluted along the plates.

[4] = tested on: species of Bacteroides and Bifidobacterium; test: MIC against normal gut microflora; type: cell-based; conditions: species of Bacteroides and Bifidobacterium tested; for DIHQ except B. longum, B. adolescentis, B. angulatum; read-out: MIC (growth inhibitory concentration)
Protocol: as §2

[5] = tested on: Lactobacillus and Bacteroides strains; test: MIC against normal gut microflora; type: cell-based; conditions: Phocaeicola dorei; Lactobacillus and Bacteroides strains tested, with the exception of B. dorei HM-719; read-out: MIC (growth inhibitory concentration)
Protocol: as §2

Bifidobacterium strains = test: MIC against normal gut microflora; type: cell-based; conditions: Bifidobacterium strains tested
Protocol: as §2

[6] = ATCC1801, C. difficile ATCC 1801, Table 3, read-out: MIC alone
[7] = DIHQ with metronidazole, C. difficile ATCC 1801
[8] = DIHQ with vancomycin, C. difficile ATCC 1801
[9] = C. difficile I6, Table 3, read-out: MIC alone
[10] = DIHQ with metronidazole, C. difficile I6
[11] = DIHQ with vancomycin, C. difficile I6
[12] = C. difficile P19, Table 3, read-out: MIC alone
[13] = DIHQ with metronidazole, C. difficile P19
[14] = DIHQ with vancomycin, C. difficile P19
[15] = C. difficile P30, Table 3, read-out: MIC alone
[16] = DIHQ with metronidazole, C. difficile P30
[17] = DIHQ with vancomycin, C. difficile P30

In the case of `Oc1c(I)cc(I)c2cccnc12` [DIHQ, 5,7-diiodoquinolin-8-ol], the MIC ([1]; initial screening, C. difficile ATCC BAA 1870, read-out: MIC) was 1 µg/mL (≈ 2.52 µM), the MIC [2] was 0.5 to 1 µg/mL (≈ 1.26 to 2.52 µM) and the “MIC of DIHQ combined with metronidazole” value (C. difficile ATCC 1801; C. difficile ATCC 1801) was 1 µg/mL. For the same compound, the “MIC of DIHQ combined with vancomycin” value (C. difficile ATCC 1801; C. difficile ATCC 1801) was 2 µg/mL, the MIC alone (C. difficile ATCC 1801; C. difficile ATCC 1801, Table 4) was 4 µg/mL and the MIC (C. difficile ATCC 1801; [6]) was 4 µg/mL. For the same compound, the Interpretation (C. difficile ATCC 1801; [7]) was “SYN (ΣFIC index ≤0.5 is considered synergistic (SYN))”, the “ΣFIC Index” value (C. difficile ATCC 1801; [7]) was 0.37 and the Interpretation (C. difficile ATCC 1801; [8]) was “ADD (ΣFIC index >0.5 − 1.25 is considered additive (ADD))”. For the same compound, the “ΣFIC Index” value (C. difficile ATCC 1801; [8]) was 0.625, the “MIC of DIHQ combined with metronidazole” value (C. difficile I6; C. difficile I6) was 0.125 µg/mL and the “MIC of DIHQ combined with vancomycin” value (C. difficile I6; C. difficile I6) was 0.5 µg/mL. For the same compound, the MIC alone (C. difficile I6; C. difficile I6, Table 4) was 2 µg/mL, the MIC (C. difficile I6; [9]) was 2 µg/mL and the Interpretation (C. difficile I6; [10]) was “SYN (ΣFIC index ≤0.5 is considered synergistic (SYN))”. The “ΣFIC Index” value (C. difficile I6; [10]) was 0.188, the Interpretation (C. difficile I6; [11]) was “SYN (ΣFIC index ≤0.5 is considered synergistic (SYN))” and the “ΣFIC Index” value (C. difficile I6; [11]) was 0.375. The “MIC of DIHQ combined with metronidazole” value (C. difficile P19; C. difficile P19) was 0.06 µg/mL, the “MIC of DIHQ combined with vancomycin” value (C. difficile P19; C. difficile P19) was 0.125 µg/mL and the MIC alone (C. difficile P19; C. difficile P19, Table 4) was 0.5 µg/mL. The MIC (C. difficile P19; [12]) was 0.5 µg/mL, the Interpretation (C. difficile P19; [13]) was “SYN (ΣFIC index ≤0.5 is considered synergistic (SYN))” and the “ΣFIC Index” value (C. difficile P19; [13]) was 0.24. For the same compound, the Interpretation (C. difficile P19; [14]) was “SYN (ΣFIC index ≤0.5 is considered synergistic (SYN))”, the “ΣFIC Index” value (C. difficile P19; [14]) was 0.375 and the “MIC of DIHQ combined with metronidazole” value (C. difficile P30; C. difficile P30) was 0.06 µg/mL. For the same compound, the “MIC of DIHQ combined with vancomycin” value (C. difficile P30; C. difficile P30) was 0.125 µg/mL, the MIC alone (C. difficile P30; C. difficile P30, Table 4) was 1 µg/mL and the MIC (C. difficile P30; [15]) was 1 µg/mL. The Interpretation (C. difficile P30; [16]) was “SYN (ΣFIC index ≤0.5 is considered synergistic (SYN))”, the “ΣFIC Index” value (C. difficile P30; [16]) was 0.185 and the Interpretation (C. difficile P30; [17]) was “SYN (ΣFIC index ≤0.5 is considered synergistic (SYN))”. For the same compound, the “ΣFIC Index” value (C. difficile P30; [17]) was 0.25, the “tested strains with a synergistic relationship” value ([3]; DIHQ combined with metronidazole) was 7 out of 9 and the “tested strains with a synergistic interaction” value ([3]; DIHQ combined with vancomycin) was 5 out of 9. For the same compound, the MIC (Bifidobacterium longum) was 64 to 128 µg/mL (≈ 161 to 322 µM) and the MIC [4] was over 128 µg/mL.
Compound `CCc1c(Cl)c(O)c(Cl)c(O)c1C(=O)O[C@H]1[C@H](O)[C@H](OC)[C@H](OC/C2=C\C=C\C[C@H](O)/C(C)=C/[C@H](CC)[C@@H](O[C@@H]3OC(C)(C)[C@@H](OC(=O)C(C)C)[C@H](O)[C@@H]3O)/C(C)=C/C(C)=C/C[C@@H]([C@@H](C)O)OC2=O)O[C@@H]1C` [Fidaxomicin, fidaxomicin] has an MIC [5] of over 128 µg/mL.
With `Cc1ncc([N+](=O)[O-])n1CCO` [Metronidazole, metronidazole] the “MIC of metronidazole combined with DIHQ” value (C. difficile ATCC 1801; C. difficile ATCC 1801) was 0.03 µg/mL, the MIC (C. difficile ATCC 1801; [6]) was 0.25 µg/mL and the “MIC of metronidazole combined with DIHQ” value (C. difficile I6; C. difficile I6) was 0.03 µg/mL. For the same compound, the MIC (C. difficile I6; [9]) was 0.25 µg/mL, the “MIC of metronidazole combined with DIHQ” value (C. difficile P19; C. difficile P19) was 0.06 µg/mL and the MIC (C. difficile P19; [12]) was 0.5 µg/mL. The “MIC of metronidazole combined with DIHQ” value (C. difficile P30; C. difficile P30) was 0.06 µg/mL, the MIC (C. difficile P30; [15]) was 0.5 µg/mL and the MIC [4] was at most 2 µg/mL.
In the case of `CN[C@H](CC(C)C)C(=O)N[C@H]1C(=O)N[C@@H](CC(N)=O)C(=O)N[C@H]2C(=O)N[C@H]3C(=O)N[C@H](C(=O)N[C@H](C(=O)O)c4cc(O)cc(O)c4-c4cc3ccc4O)[C@H](O)c3ccc(c(Cl)c3)Oc3cc2cc(c3O[C@@H]2O[C@H](CO)[C@@H](O)[C@H](O)[C@H]2O[C@H]2C[C@](C)(N)[C@H](O)[C@H](C)O2)Oc2ccc(cc2Cl)[C@H]1O` [Vancomycin, vancomycin], the MIC [1] was 1 µg/mL (≈ 0.69 µM), the “MIC of vancomycin combined with DIHQ” value (C. difficile ATCC 1801; C. difficile ATCC 1801) was 0.06 µg/mL and the MIC (C. difficile ATCC 1801; ATCC1801, read-out: MIC alone) was 0.5 µg/mL. For the same compound, the “MIC of vancomycin combined with DIHQ” value (C. difficile I6; C. difficile I6) was 0.06 µg/mL, the MIC (C. difficile I6; I6, read-out: MIC alone) was 0.5 µg/mL and the “MIC of vancomycin combined with DIHQ” value (C. difficile P19; C. difficile P19) was 0.125 µg/mL. For the same compound, the MIC (C. difficile P19; P19, read-out: MIC alone) was 1 µg/mL, the “MIC of vancomycin combined with DIHQ” value (C. difficile P30; C. difficile P30) was 0.125 µg/mL and the MIC (C. difficile P30; P30, read-out: MIC alone) was 1 µg/mL. For the same compound, the MIC (Bifidobacterium strains) was at most 1 µg/mL.
